Results as given in patent publication US5055476A, “3-(1,2-benzisoxazol-3-yl)-4-pyridinamines and derivatives” (Hoechst-Roussel Pharmaceuticals Incorporated, priority 1990, dated 1991).

What was measured:
[1] = system: Scopolamine Induced Memory Deficit; assay: Dark Avoidance Assay (reversal of scopolamine induced memory deficit); type: in vivo; conditions: mice
Procedure: In this assay, mice are tested for their ability to remember an unpleasant stimulus for a period of 24 hours. A mouse is placed in a chamber that contains a dark compartment; a strong incandescent light drives it to the dark compartment, where an electric shock is administered through metal plates on the floor. The animal is removed from the testing apparatus and tested again, 24 hours later, for the ability to remember the electric shock.

[2] = system: ear edema induced by topical application of TPA; assay: TPA-Induced Ear Edema (TPAEE); type: in vivo, Female Swiss Webster mice; conditions: for TPAEE (change in TPA-induced ear edema): 10 μg/ear topical, TPA 10 μg/ear, five hours
Procedure: The purpose of this assay was to determine the ability of a topically-applied compound to prevent ear edema induced by topical application of TPA (phorbol 12-myristate acetate). Female Swiss Webster mice topically received TPA (10 μg/ear) on the right ear and vehicle on the left ear. The test compound (10 μg/ear) was applied to both ears. After five hours, the animals were sacrificed and an ear punch (4 mm) was taken from each ear. The difference in right and left ear punch weights for each animal was determined to assess activity. […] See Young, J. M. et al., J. Invest. Dermatol., 80 (1983), pp. 48-52.

[3] = system: phenyl-para-quinone writhing; assay: phenyl-para-quinone writhing assay in mice (analgesia); type: in vivo
Description: The compounds of the present invention are useful as analgesic agents. […] Exptl. Biol. Med., 95, 729 (1957)].

Nc1ccncc1-c1noc2ccccc12.O=C(O)/C=C\C(=O)O [3-(1,2-Benzisoxazol-3-yl)-4-pyridinamine maleate] was tested, and the “% of Animals with Scopolamine Induced Memory Deficit Reversal” value (“% of Animals” below) ([1]; 1.0 mg/kg s.c., 24 hours) was 21%, the “% of Animals” value ([1]; 10.0 mg/kg s.c., 24 hours) was 33% and the “TPAEE (change in TPA-induced ear edema)” value [2] was -29%. The “% Inhibition of Writhing” value ([3]; 20 mg/kg of body wt. s.c., mice) was 40%.

In the case of CC(C)(C)C(=O)Nc1ccncc1-c1noc2ccccc12 [N-[3-(1,2-Benzisoxazol-3-yl)-4-pyridinyl]-2,2-dimethylpropanamide], the “% of Animals” value ([1]; 3.0 mg/kg s.c., 24 hours) was 20% and the “TPAEE (change in TPA-induced ear edema)” value [2] was -23%.

For CNC(=O)Oc1ccc2c(c1)[C@]1(C)CCN(C)[C@@H]1N2C [Physostigmine, reference compound], the “% of Animals” value ([1]; 0.31 mg/kg s.c., 24 hours (reference)) was 20%.

For CCC(=O)O[C@](Cc1ccccc1)(c1ccccc1)[C@H](C)CN(C)C [Propoxyphene, reference compound], the “% Inhibition of Writhing” value ([3]; 3.9 mg/kg of body wt. s.c., mice (standard)) was 50%.

With C[C@]12CCC(=O)C=C1CC[C@@H]1[C@@H]2[C@@H](O)C[C@@]2(C)[C@H]1CC[C@]2(O)C(=O)CO [hydrocortisone, reference compound] the “ED50 (TPA-induced ear edema)” value ([2]; standard, topical, mice) was 47 μg/ear.
